Assay results: patent US20150238446A1, “NEW TREATMENT OF FISH WITH A NANOSUS PENS ION OF LUFENURON OR HEXAFLUMURON” (Novartis AG, priority 2012, published 2015)

How the values were obtained:
[1] = cited from earlier work
[2] = Stability testing of oily lufenuron or hexaflumuron formulations; type: physicochemical; conditions: in organic solvents/media
From the text: WO99/063824 discloses the use of hexaflumuron and lufenuron, both members of the chemical class of benzoylureas, in the control of sea lice infestations on fish. Hexaflumurone is applied to the fish orally, via bath treatment or via injection, lufenuron is proposed exclusively for injection. Oily injectable formulations of the two active ingredients, in particular those comprising, in addition, a vaccine against furunculosis, show activity against sea lice for 128 days or in case of hexaflumuron even longer. […] The resulting low shelf life make them unsuited for commercial use. […] In addition, as both hexaflumuron and lufenuron have a strong tendency to aggregate and form sediments in an aqueous environment, the handling of water-based injectables is difficult and cumbersome. So it is not surprising that no commercial lufenuron or hexaflumuron sea lice product has made it to the market until now.

sea lice = conditions: cited from earlier work; for duration of activity against sea lice: oily injectable formulations, in particular with a vaccine against furunculosis (WO99/063824)
L. salmonis = assay: In vivo test in Atlantic salmon, natural sea lice infestation, pre-adult and adult count; conditions: nanosuspension injected
Description: Three groups of 150 salmon (Atlantic Salmon, S. salar) of an average weight 200 g were injected with an amount of the above nanosuspension (a) equivalent to 25 mg (cage 1), 50 mg (cage 2) or 75 mg lufenuron per kg salmon (cage 3). A fourth cage containing 150 salmon of average weight 200 g was added to the study as a non-treated control group.
After treatment, the fish were exposed to natural sea lice infestation for a period of 8 months. During the study the water temperature varied between 4 and 12° C. Sea louse numbers were assessed on a monthly basis until month 8. Counts were conducted on 10 fish at each sampling occasion. The numbers of pre-adults and adult L. salmonis were recorded for each fish. Efficacy was calculated using the formula:
% Efficacy=100−(100×mean of treatment group/mean of control).

SMILES: O=C(NC(=O)c1c(F)cccc1F)Nc1cc(Cl)c(OC(F)(F)C(F)F)c(Cl)c1 [hexaflumuron, 1-[3,5-dichloro-4-(1,1,2,2-tetrafluoroethoxyl)phenyl]-3-(2,6-difluorobenzoyl)urea]
- water-solubility [1]: ≤ 0.027 µg/mL
- chemical stability of the active ingredient [2]: chemically instable
- performance in vivo against sea lice (sea lice; hexaflumuron containing aqueous suspension (WO99/063824)): poor performance
- duration of activity against sea lice (sea lice): > 128 days

SMILES: O=C(NC(=O)c1c(F)cccc1F)Nc1cc(Cl)c(OC(F)(F)C(F)C(F)(F)F)cc1Cl (centres unmarked) [lufenuron, N-{[2,5-Dichlor-4-(1,1,2,3,3,3-hexafluorpropoxyl)phenyl]carbamoyl}-2,6-difluorbenzamid]
- water-solubility [1]: ≤ 0.06 µg/mL
- chemical stability of the active ingredient [2]: chemically instable
- duration of activity against sea lice (sea lice): 128 days
- % efficacy pre-adult and adult count (L. salmonis; 25 mg/kg lufenuron, 1 month): 100%
- % efficacy pre-adult and adult count (L. salmonis; 25 mg/kg lufenuron, 2 month): 95%
- % efficacy pre-adult and adult count (L. salmonis; 25 mg/kg lufenuron, 3 month): 100%
- % efficacy pre-adult and adult count (L. salmonis; 25 mg/kg lufenuron, 4 month): 96%
- % efficacy pre-adult and adult count (L. salmonis; 25 mg/kg lufenuron, 5 month): 100%
- % efficacy pre-adult and adult count (L. salmonis; 25 mg/kg lufenuron, 6 month): 81%
- duration of complete protection of the fish against sea lice infestation (L. salmonis; 25 mg/kg): at least 5 month
- duration of complete protection of the fish against sea lice infestation (L. salmonis; 50 mg/kg fish, until the end of the study): 8 month
- % efficacy pre-adult and adult count (L. salmonis; 50 mg/kg lufenuron, 1 month): 90%
- % efficacy pre-adult and adult count (L. salmonis; 50 mg/kg lufenuron, 2 month): 100%
- % efficacy pre-adult and adult count (L. salmonis; 50 mg/kg lufenuron, 3 month): 100%
- % efficacy pre-adult and adult count (L. salmonis; 50 mg/kg lufenuron, 4 month): 100%
- % efficacy pre-adult and adult count (L. salmonis; 50 mg/kg lufenuron, 5 month): 97%
- % efficacy pre-adult and adult count (L. salmonis; 50 mg/kg lufenuron, 6 month): 96%
- % efficacy pre-adult and adult count (L. salmonis; 50 mg/kg lufenuron, 7 month): 98%
- % efficacy pre-adult and adult count (L. salmonis; 50 mg/kg lufenuron, 8 month): 98%
- % efficacy pre-adult and adult count (L. salmonis; 75 mg/kg lufenuron, 1 month): 100%
- % efficacy pre-adult and adult count (L. salmonis; 75 mg/kg lufenuron, 2 month): 100%
- % efficacy pre-adult and adult count (L. salmonis; 75 mg/kg lufenuron, 3 month): 100%
- % efficacy pre-adult and adult count (L. salmonis; 75 mg/kg lufenuron, 4 month): 96%
- % efficacy pre-adult and adult count (L. salmonis; 75 mg/kg lufenuron, 5 month): 100%
- % efficacy pre-adult and adult count (L. salmonis; 75 mg/kg lufenuron, 6 month): 100%
- % efficacy pre-adult and adult count (L. salmonis; 75 mg/kg lufenuron, 7 month): 98%
- % efficacy pre-adult and adult count (L. salmonis; 75 mg/kg lufenuron, 8 month): 100%
- duration of complete protection of the fish against sea lice infestation (L. salmonis; 75 mg/kg, until the end of the study): 8 month
